≈ marks a conversion by molar mass, not a printed value.
tested on: Septoria tritici (ATCC 26517); experiment: Minimum Inhibitory Concentration (MIC) (Septoria tritici), CLSI-based microdilution; format: cell-based; conditions: S. tritici ATCC 26517; 22° C. for seven days; 50% reduction in growth
Method: C. Minimum Inhibitory Concentration (MIC) (Septoria tritici)
Compounds of the present disclosure were assessed for their ability to inhibit the growth of a common strain of the fungal plant pathogen Septoria tritici (ATCC 26517) using a procedure based on a Clinical and Laboratory Standards Institute (CLSI) microdilution assay protocol for filamentous fungi.
Stock solutions of the test compounds and standards were prepared in DMSO at 6400 μg/mL. Each stock solution was used to prepare a 2-fold dilution series ranging from 16 to 0.016 μg/mL (total of 11 compound concentrations) in RPMI-1640 (Roswell Park Memorial Institute) medium containing 3-(N-morpholino)propanesulfonic acid (MOPS) buffer and 2% DMSO. A 100 μL aliquot of the dilutions was added to columns 1 (16 μg/mL compound) through 11 (0.016 μg/mL compound) of a 96-well microtiter plate. This format was replicated in a second row of the microtiter plate. Thus, each microtiter plate could include 11 concentrations of four test or control compounds replicated twice. A 100 μL aliquot of RPMI-1640/MOPS/2% DMSO medium was added to column 12 (no compound control) of the microtiter plate.
A fresh culture of S. tritici was used to prepare a solution of approximately 5×10^4 colony-forming units per milliliter (cfu/mL) in RPMI/MOPS medium without DMSO. A 100 µL aliquot of this solution was added to all 96 wells in the microtiter plate. […] The assay plates were incubated at 22° C. for seven days in the dark without shaking.
In each case of Table 3 the Septoria rating scale is as follows: […]

| SMILES | Septoria Rating (MIC) |
| --- | --- |
| OC(Cn1cnnn1)(c1ccc(F)cc1F)C(F)(F)c1ccc(-c2ccc(Cl)nc2)cn1 (stereo not drawn) [30(+), 1-(6′-Chloro-[3,3′-bipyridin]-6-yl)-2-(2,4-difluorophenyl)-1,1-difluoro-3-(1H-tetrazol-1-yl)propan-2-ol] | B (>1.5-1.5) |
| OC(Cn1cnnn1)(c1ccc(F)cc1F)C(F)(F)c1ccc(-c2ccc(F)nc2)cn1 (stereo not drawn) [31(+), 2-(2,4-Difluorophenyl)-1,1-difluoro-1-(6′-fluoro-[3,3′-bipyridin]-6-yl)-3-(1H-tetrazol-1-yl)propan-2-ol] | A (≦0.5) |
| CC(F)(c1ccc(Br)cn1)C(O)(Cn1cnnn1)c1ccc(F)cc1F (centres unmarked) [Compound 85, 3-(5-Bromopyridin-2-yl)-2-(2,4-difluorophenyl)-3-fluoro-1-(1H-tetrazol-1-yl)butan-2-ol] | C (>1.5-4) |

same assay, conditions: Zymoseptoria tritici, ATCC26517, 168 h, S. tritici ATCC 26517; 22° C. for seven days; 50% reduction in growth; read-out: Septoria Rating (MIC)

| SMILES | MIC |
| --- | --- |
| CC(=O)CCc1ccc(C(F)(F)C(O)(Cn2cnnn2)c2ccc(F)cc2F)nc1 (centres unmarked) [Compound 8, 4-(6-(2-(2,4-Difluorophenyl)-1,1-difluoro-2-hydroxy-3-(1H-tetrazol-1-yl)propyl)pyridin-3-yl)butan-2-one] | 1.5 µg/mL (≈ 3.54 µM) |
| COc1ncc(-c2ccc(C(F)(F)C(O)(Cn3cnnn3)c3ccc(F)cc3F)nc2)cn1 (centres unmarked) [Compound 37, 2-(2,4-Difluorophenyl)-1,1-difluoro-1-(5-(2-methoxypyrimidin-5-yl)pyridin-2-yl)-3-(1H-tetrazol-1-yl)propan-2-ol] | 1.5 to 4 µg/mL (≈ 3.25 to 8.67 µM) |
| OC/C=C/c1ccc(C(F)(F)C(O)(Cn2cnnn2)c2ccc(F)cc2F)nc1 (centres unmarked) [Compound 43, (E)-3-(6-(2-(2,4-Difluorophenyl)-1,1-difluoro-2-hydroxy-3-(1H-tetrazol-1-yl)propyl)pyridin-3-yl)prop-2-en-1-ol] | 1.5 to 4 µg/mL (≈ 3.66 to 9.77 µM) |
| CC(O)CCc1ccc(C(F)(F)C(O)(Cn2cnnn2)c2ccc(F)cc2F)nc1 (centres unmarked) [Compound 47, 4-(6-(2-(2,4-Difluorophenyl)-1,1-difluoro-2-hydroxy-3-(1H-tetrazol-1-yl)propyl)pyridin-3-yl)butan-2-ol] | 1.5 to 4 µg/mL (≈ 3.53 to 9.4 µM) |
| OC(Cn1cnnn1)(c1ccc(F)cc1F)C(F)(F)c1ccc(-c2ccc(Br)s2)cn1 (centres unmarked) [Compound 78, 1-(5-(5-Bromothiophen-2-yl)pyridin-2-yl)-2-(2,4-difluorophenyl)-1,1-difluoro-3-(1H-tetrazol-1-yl)propan-2-ol] | ≤ 0.5 µg/mL |
| COC/C=C/c1ccc(C(F)(F)C(O)(Cn2cnnn2)c2ccc(F)cc2F)nc1 (centres unmarked) [Compound 48, (E)-2-(2,4-Difluorophenyl)-1,1-difluoro-1-(5-(3-methoxyprop-1-en-1-yl)pyridin-2-yl)-3-(1H-tetrazol-1-yl)propan-2-ol] | 1.5 µg/mL (≈ 3.54 µM) |
| CC(C)OCc1ccc(C(F)(F)C(O)(Cn2cnnn2)c2ccc(F)cc2F)nc1 (centres unmarked) [Compound 91, 2-(2,4-difluorophenyl)-1,1-difluoro-1-(5-(isopropoxymethyl)pyridin-2-yl)-3-(1H-tetrazol-1-yl)propan-2-ol] | 1.5 µg/mL (≈ 3.53 µM) |
| CC(C)OCCCc1ccc(C(F)(F)C(O)(Cn2cnnn2)c2ccc(F)cc2F)nc1 (centres unmarked) [Compound 55, 2-(2,4-Difluorophenyl)-1,1-difluoro-1-(5-(3-isopropoxypropyl)pyridin-2-yl)-3-(1H-tetrazol-1-yl)propan-2-ol] | ≤ 0.5 µg/mL |
| OC(Cn1cnnn1)(c1ccc(F)cc1F)C(F)(F)c1ccc(-n2nccn2)cn1 (centres unmarked) [Compound 9, 1-(5-(2H-1,2,3-Triazol-2-yl)pyridin-2-yl)-2-(2,4-difluorophenyl)-1,1-difluoro-3-(1H-tetrazol-1-yl)propan-2-ol] | 1.5 to 4 µg/mL (≈ 3.57 to 9.52 µM) |
| COC(=O)CSc1ccc(C(F)(F)C(O)(Cn2cnnn2)c2ccc(F)cc2F)nc1 (centres unmarked) [Compound 41, Methyl 2-((6-(2-(2,4-difluorophenyl)-1,1-difluoro-2-hydroxy-3-(1H-tetrazol-1-yl)propyl)pyridin-3-yl)thio)acetate] | > 4 µg/mL |
| OC(Cn1cnnn1)(c1ccc(F)cc1F)C(F)(F)c1cc(Cl)ccn1 (centres unmarked) [Compound 14, 1-(4-Chloropyridin-2-yl)-2-(2,4-difluorophenyl)-1,1-difluoro-3-(1H-tetrazol-1-yl)propan-2-ol] | 1.5 to 4 µg/mL (≈ 3.87 to 10.3 µM) |
| OC(Cn1cnnn1)(c1ccc(F)cc1F)C(F)(F)c1ccc(-c2cnc(Cl)nc2)cn1 (centres unmarked) [Compound 57, 1-(5-(2-Chloropyrimidin-5-yl)pyridin-2-yl)-2-(2,4-difluorophenyl)-1,1-difluoro-3-(1H-tetrazol-1-yl)propan-2-ol] | > 4 µg/mL |
| N#Cc1ccc(OCc2ccc(C(F)(F)C(O)(Cn3ncnn3)c3ccc(F)cc3F)nc2)cc1 (centres unmarked) [Compound 80, 4-((6-(2-(2,4-Difluorophenyl)-1,1-difluoro-2-hydroxy-3-(2H-tetrazol-2-yl)propyl)pyridin-3-yl)methoxy)benzonitrile] | > 4 µg/mL |
| OC(Cc1cc[nH]n1)(c1ccc(F)cc1F)C(F)(F)c1ccc(-n2nccn2)cn1 (centres unmarked) [Compound 63, 1-(5-(2H-1,2,3-Triazol-2-yl)pyridin-2-yl)-2-(2,4-difluorophenyl)-1,1-difluoro-3-(1H-pyrazol-3-yl)propan-2-ol] | 1.5 µg/mL (≈ 3.59 µM) |
| OC(Cn1cnnn1)(c1ccc(F)cc1F)C(F)(F)c1cccc(Br)n1 (centres unmarked) [Compound 20, 1-(6-Bromopyridin-2-yl)-2-(2,4-difluorophenyl)-1,1-difluoro-3-(1H-tetrazol-1-yl)propan-2-ol] | 1.5 to 4 µg/mL (≈ 3.47 to 9.26 µM) |
| OC(Cn1cnnn1)(c1ccc(F)cc1F)C(F)(F)c1ccc(C(F)(F)F)cn1 (centres unmarked) [Compound 19, 2-(2,4-Difluorophenyl)-1,1-difluoro-3-(1H-tetrazol-1-yl)-1-(5-(trifluoromethyl)pyridin-2-yl)propan-2-ol] | 1.5 to 4 µg/mL (≈ 3.56 to 9.49 µM) |
| OC(Cn1cnnn1)(c1ccc(Cl)cc1F)C(F)(F)c1ccccn1 (centres unmarked) [Compound 11, 2-(4-Chloro-2-fluorophenyl)-1,1-difluoro-1-(pyridin-2-yl)-3-(1H-tetrazol-1-yl)propan-2-ol] | 1.5 to 4 µg/mL (≈ 4.06 to 10.8 µM) |
| C=CCc1ccc(C(F)(F)C(O)(Cn2cnnn2)c2ccc(F)cc2F)nc1 (centres unmarked) [Compound 61, 1-(5-Allylpyridin-2-yl)-2-(2,4-difluorophenyl)-1,1-difluoro-3-(1H-tetrazol-1-yl)propan-2-ol] | 1.5 to 4 µg/mL (≈ 3.81 to 10.2 µM) |
| OC(Cc1cc[nH]n1)(c1ccc(F)cc1F)C(F)(F)c1ccc(Br)cn1 (centres unmarked) [Compound 62, 1-(5-Bromopyridin-2-yl)-2-(2,4-difluorophenyl)-1,1-difluoro-3-(1H-pyrazol-3-yl)propan-2-ol] | ≤ 0.5 µg/mL |
| OC(Cn1cnnn1)(c1ccc(C(F)(F)F)cc1F)C(F)(F)c1ccc(Br)cn1 (centres unmarked) [Compound 23, 1-(5-Bromopyridin-2-yl)-1,1-difluoro-2-(2-fluoro-4-(trifluoromethyl)phenyl)-3-(1H-tetrazol-1-yl)propan-2-ol] | 1.5 to 4 µg/mL (≈ 3.11 to 8.3 µM) |
| OC(c1ccc(C(F)(F)C(O)(Cn2cnnn2)c2ccc(F)cc2F)nc1)C(F)(F)F (centres unmarked) [Compound 56, (2-(2,4-Difluorophenyl)-1,1-difluoro-3-(1H-tetrazol-1-yl)-1-(5-(2,2,2-trifluoro-1-hydroxyethyl)pyridin-2-yl)propan-2-ol)] | > 4 µg/mL |
| OC(c1ccc(C(F)(F)F)cc1)c1ccc(C(F)(F)C(O)(Cn2cnnn2)c2ccc(F)cc2F)nc1 (centres unmarked) [Compound 72, 2-(2,4-Difluorophenyl)-1,1-difluoro-1-(5-(hydroxy(4-(trifluoromethyl)phenyl)methyl)pyridin-2-yl)-3-(1H-tetrazol-1-yl)propan-2-ol] | 1.5 to 4 µg/mL (≈ 2.84 to 7.58 µM) |
| CC(=O)/C=C/c1ccc(C(F)(F)C(O)(Cn2cnnn2)c2ccc(F)cc2F)nc1 (centres unmarked) [Compound 7, (E)-4-(6-(2-(2,4-Difluorophenyl)-1,1-difluoro-2-hydroxy-3-(1H-tetrazol-1-yl)propyl)pyridin-3-yl)but-3-en-2-one] | 1.5 to 4 µg/mL (≈ 3.56 to 9.49 µM) |
| CC(O)/C=C/c1ccc(C(F)(F)C(O)(Cn2cnnn2)c2ccc(F)cc2F)nc1 (centres unmarked) [Compound 46, (E)-4-(6-(2-(2,4-Difluorophenyl)-1,1-difluoro-2-hydroxy-3-(1H-tetrazol-1-yl)propyl)pyridin-3-yl)but-3-en-2-ol] | 1.5 to 4 µg/mL (≈ 3.54 to 9.45 µM) |
| OC(Cn1cnnn1)(c1ccc(F)cc1F)C(F)(F)c1ccc(N2CCOCC2)cn1 (centres unmarked) [Compound 81, 2-(2,4-Difluorophenyl)-1,1-difluoro-1-(5-morpholinopyridin-2-yl)-3-(1H-tetrazol-1-yl)propan-2-ol] | 1.5 to 4 µg/mL (≈ 3.42 to 9.12 µM) |
| CCOC(=O)CCc1ccc(C(F)(F)C(O)(Cn2cnnn2)c2ccc(F)cc2F)nc1 (centres unmarked) [Compound 5, Ethyl 3-(6-(2-(2,4-difluorophenyl)-1,1-difluoro-2-hydroxy-3-(1H-tetrazol-1-yl)propyl)pyridin-3-yl)propanoate] | ≤ 0.5 µg/mL |
| OCCCc1ccc(C(F)(F)C(O)(Cn2cnnn2)c2ccc(F)cc2F)nc1 (centres unmarked) [Compound 44, 3-(6-(2-(2,4-Difluorophenyl)-1,1-difluoro-2-hydroxy-3-(1H-tetrazol-1-yl)propyl)pyridin-3-yl)propan-1-ol] | 1.5 to 4 µg/mL (≈ 3.65 to 9.72 µM) |
| COCCCc1ccc(C(F)(F)C(O)(Cn2cnnn2)c2ccc(F)cc2F)nc1 (centres unmarked) [Compound 50, 2-(2,4-Difluorophenyl)-1,1-difluoro-1-(5-(3-methoxypropyl)pyridin-2-yl)-3-(1H-tetrazol-1-yl)propan-2-ol] | 1.5 µg/mL (≈ 3.53 µM) |
| OC(Cc1cn[nH]c1)(c1ccc(F)cc1F)C(F)(F)c1ccccn1 (centres unmarked) [Compound 65, 2-(2,4-Difluorophenyl)-1,1-difluoro-3-(1H-pyrazol-4-yl)-1-(pyridin-2-yl)propan-2-ol] | 1.5 to 4 µg/mL (≈ 4.27 to 11.4 µM) |
